Consider 80 compounds from patent US11116757B2 (priority 2015, dated 2021).

Some results are limits rather than exact numbers.

Chain of DCN1-UBC12 interaction (Q96GG9 60-248 limits assumed): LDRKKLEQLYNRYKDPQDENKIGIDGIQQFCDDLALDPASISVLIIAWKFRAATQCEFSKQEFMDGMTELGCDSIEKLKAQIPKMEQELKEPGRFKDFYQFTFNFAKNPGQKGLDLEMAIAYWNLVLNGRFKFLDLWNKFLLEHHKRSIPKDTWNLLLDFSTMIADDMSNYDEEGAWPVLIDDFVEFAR

The first experiment addresses DCN1-UBC12 interaction (Homo sapiens (Human), UniProt Q96GG9). In words: biochemical. It is filed as binding. To be noted: TR-FRET IC50. Background: In TR-FRET formats the signal depends on donor and acceptor labels being close together.
As for `CCCC(C)N1CCC(N(Cc2ccccc2)C(=O)Nc2ccc(Cl)cc2)CC1` (centres unmarked) [A13], 0.083 µM corresponded to half-maximal inhibition (IC50).

The experiment is the same for the next values; noted with them: Table 4, commercial compounds; read-out: TR-FRET IC50.
As to `O=C(Nc1ccc(Cl)cc1Cl)C1CCN(C(=O)c2ccc(F)cc2)CC1` [C15], the IC50 (in general, the midpoint of a concentration-inhibition curve) is greater than 67.6 µM. With `O=C(Nc1ccc(C(F)(F)F)cc1)N1CCN(C/C=C/c2ccccc2)CC1` [C13], the IC50 was greater than 66.3 µM. For the compound `COc1ccc(C(=O)NC2CCN(C(=O)c3ccc(OC)cc3)CC2)cc1` [C71], the IC50 was greater than 92.2 µM. With `CC(=O)Nc1cccc(NC(=O)C2CCN(C(=O)c3ccco3)CC2)c1` [C39], the IC50 was greater than 67.6 µM. For `CC(=O)Nc1ccc(NC(=O)C2CCN(C(=O)c3cccs3)CC2)cc1` [C35], the IC50 is greater than 67.6 µM. For `COc1cc(C(=O)N2CCC(C(=O)Nc3ccc(Cl)cc3)CC2)cc(OC)c1OC` [C23], the IC50 is greater than 67.6 µM.

For the compound `O=C(Nc1ccc(Cl)c(Cl)c1)C1CCN(C(=O)c2ccco2)CC1` [C40], the IC50 is greater than 67.6 µM.

On to `O=C(Nc1cccc(F)c1)C1CCN(C(=O)c2cnn(-c3ccccc3)c2-n2cccc2)CC1` [C50], for which the IC50 is greater than 67.6 µM.

In the case of `COCC(=O)N1CCC(C(=O)Nc2ccc(-c3cc4ccccc4[nH]3)cc2)CC1` [C46], the IC50 is greater than 67.6 µM.

In the case of `Cc1ccc(NC(=O)C2CCN(C(=O)c3ccccc3C)CC2)cc1C` [C22], the IC50 was greater than 67.6 µM. For the compound `O=C(Nc1ccc(I)cc1)C1CCN(C(=O)c2ccco2)CC1` [C30], the half-inhibitory concentration (IC50) was greater than 67.6 µM.

Take `O=C(Nc1ccc(Cl)c(C(F)(F)F)c1)C1CCN(C(=O)c2ccc(Br)cc2)CC1` [C29]: the IC50 is greater than 67.6 µM.

Staying with this experiment, now noted: Table 6, commercial compounds; read-out: TR-FRET IC50.
`CCN(CC)CCNC(=O)c1cnn(-c2nccc(-c3cccs3)n2)c1C` [E54]: the IC50 is greater than 67.6 µM. Turning to `CCN(CC)CCN(C)C(=O)c1cnn(-c2nccc(-c3cccs3)n2)c1C(C)C` [E15], the IC50 came to 32.1 µM. On the same count and under the same terms, with `CCOc1ccccc1N1CCN(C(=O)c2cnn(-c3nccc(-c4ccco4)n3)c2C)CC1` [E10] the figure was 25 µM. On the same count and under the same terms, with `CCCN1CCN(C(=O)c2cnn(-c3nccc(-c4cccs4)n3)c2COC)CC1` [E27] the figure was greater than 16.7 µM; with `CCN(CC)CCN(CC)C(=O)c1cnn(-c2ncc(C)c(-c3cccs3)n2)c1C1CC1` [E18], 38.1 µM. As for `CCN(CC)C(=O)c1cnn(-c2nccc(-c3cccs3)n2)c1C1CC1` [E61], the IC50 is greater than 71.6 µM. With `CCN1CCN(C(=O)c2cnn(-c3nccc(-c4cccs4)n3)c2C)CC1` [E23], the IC50 was 57.9 µM. On to `CCN(CC)CCN(C)C(=O)c1cnn(-c2ncc(C)c(-c3cccs3)n2)c1COC` [E38], for which the IC50 is greater than 67.6 µM.

The same experiment, now with this note: Table 7, commercial compounds; read-out: TR-FRET IC50.
For the compound `Cc1nn(-c2ccccc2)c2c1C(c1ccc(C(F)(F)F)cc1)C(NC(=O)c1ccccc1)C(=O)N2` (centres unmarked) [F19], the IC50 is greater than 67.6 µM. Turning to `Cc1nn(C)c2c1C(c1cccc(Cl)c1)C(NC(=O)c1ccc(Cl)cc1)C(=O)N2` (centres unmarked) [F28], the IC50 is greater than 67.6 µM. Same read-out and setting: for `Cc1cccc(C(=O)NC2C(=O)Nc3c(c(C)nn3C)C2c2ccc(C(C)C)cc2)c1` (centres unmarked) [F16] the value was greater than 67.6 µM. For the compound `Cc1nn(C)c2c1C(c1ccc(F)c(F)c1)C(NC(=O)c1ccc(Cl)cc1)C(=O)N2` (centres unmarked) [F26], the IC50 was greater than 67.6 µM. On the same count and under the same terms, for `CCOc1ccc(C2c3c(C)nn(C)c3NC(=O)C2NC(=O)c2cccc(C)c2)cc1` (centres unmarked) [F23] the value was greater than 67.6 µM; for `Cc1cccc(C(=O)NC2C(=O)Nc3c(c(C)nn3-c3ccccc3)C2c2ccc(C#N)cc2)c1` (centres unmarked) [F5], 35.1 µM; for `COc1ccc(C2c3c(C)nn(C)c3NC(=O)C2NC(=O)c2cccc(C)c2)cc1OC` (centres unmarked) [F14], greater than 67.6 µM. The same measure, in the same setting: for `CSc1ccc(C2c3c(C)nn(C)c3NC(=O)C2NC(=O)c2cccc(C)c2)cc1F` (centres unmarked) [F7] the value was 41.5 µM.

Still in this experiment, the particulars now being: read-out: TR-FRET IC50.
For `CCCC(C)N1CCC(N(Cc2ccccc2)C(=O)Nc2ccc3c(c2)OCO3)CC1` (centres unmarked) [A86], the IC50 is 0.991 µM. Turning to `CC1CN(Cc2ccccc2)CCC1N(C)C(=O)Nc1cccc2cnccc12` (centres unmarked) [B23], the half-inhibitory concentration (IC50) was greater than 113 µM.

Regarding `O=C(c1ccc(F)cc1F)N1CCC(c2nc3ccccc3s2)CC1` [D11], the IC50 was 30.6 µM. `O=C(Nc1cc(F)cc(C(F)(F)F)c1)N(Cc1ccccc1)C1CCN(Cc2cccc(N3CCCC3)c2)CC1` [A202]: the IC50 was greater than 19.4 µM. Same read-out and setting: with `O=C(c1ccccc1F)N1CCC(c2nc3ccccc3s2)CC1` [D13] the figure was 45.3 µM; with `CCCC(C)N1CCC(N(Cc2ccccc2)C(=O)Nc2cc(S(F)(F)(F)(F)F)ccc2F)CC1` (centres unmarked) [A107], 2.05 µM. On the same count and under the same terms, for `C=CC(=O)NCc1ccccc1CN(C(=O)Nc1cccc(C(F)(F)F)c1)C1CCN(C(C)CCC)CC1` (centres unmarked) [A239] the value was greater than 51.2 µM.

As for `CCCC(C)N1CCC(N(Cc2ccccc2)C(=O)Nc2cccc(-c3ccccc3)c2)CC1` (centres unmarked) [A129], the IC50 was 2.67 µM. On to `COc1cc(CN2CCC(NC(=O)Nc3cccc(C)c3)CC2)cc(OC)c1OC` [B12], for which the IC50 stood at 29.3 µM. Regarding `COc1cc(C(=O)N2CCC(c3nc4ccccc4s3)CC2)cc(OC)c1OC` [D2], the IC50 was 8.53 µM.

With `O=C(Nc1ccc(CN2CCCCC2)cc1)Nc1cc(C(F)(F)F)ccc1Cl` [B29], the IC50 is greater than 50.3 µM.

`CCCCN(C(=O)Nc1ccc(F)c(C(F)(F)F)c1)C1CCN(C(C)CCC)CC1` (centres unmarked) [A87]: the IC50 came to 1.01 µM. Take `CCCC(C)N1CCC(N(Cc2ccccc2)C(=O)Nc2ccc(C)cc2F)CC1` (centres unmarked) [A157]: the IC50 stood at 7.11 µM. Same read-out and setting: for `O=C(Nc1cc(F)cc(C(F)(F)F)c1)N(Cc1ccccc1)C1CCN(Cc2ccccc2OCc2ccccc2)CC1` [A214] the value was greater than 22.9 µM; for `Cc1ccc(CN2CCC(N(Cc3ccccc3)C(=O)Nc3cc(F)cc(C(F)(F)F)c3)CC2)s1` [A227], greater than 27 µM; for `CCCC(C)N1CCC(N(Cc2ccccc2)C(=O)Nc2ccc(C)c(C)c2)CC1` (centres unmarked) [A31], 0.184 µM.

In the case of `CCCC(C)N1CCC(N(Cc2ccccc2)C(=O)Nc2ccc(F)c(F)c2F)CC1` (centres unmarked) [A286], the IC50 was greater than 72.4 µM. In the case of `O=C(Nc1cc(F)cc(C(F)(F)F)c1)N(Cc1ccccc1)C1CCN(Cc2csc3ccccc23)CC1` [A212], the IC50 was greater than 22.5 µM. As to `CCCCN1CCC(N(Cc2ccccc2)C(=O)Nc2cccc(Cl)c2)CC1` [A60], the half-maximal inhibitory concentration (IC50) stood at 0.357 µM. The same measure, in the same setting: for `CCCC(C)N1CCC(N(Cc2ccccc2)C(=O)Nc2ccc(C(N)=O)cc2)CC1` (centres unmarked) [A258] the value was greater than 62.2 µM. Regarding `CCCC(C)N1CCC(N(Cc2ccccc2)C(=O)Nc2cc(F)c(F)cc2F)CC1` (centres unmarked) [A166], the IC50 worked out at 10.1 µM. As for `CCCC(C)N1CCC(N(Cc2ccccc2)C(=O)Nc2ccc(O)cc2C)CC1` (centres unmarked) [A115], the half-maximal inhibitory concentration (IC50) is 2.36 µM. In the case of `CN(C)c1ccc(CN2CCC(N(Cc3ccccc3)C(=O)Nc3cc(F)cc(C(F)(F)F)c3)CC2)c2ccccc12` [A204], the IC50 was greater than 20.2 µM. Consider `CCCCN1CCC(C(Cc2ccccc2)C(=O)Nc2cccc(C(F)(F)F)c2)CC1` (centres unmarked) [A156], for which the IC50 amounted to 7.11 µM. In the case of `CCCC(C)N1CCC(N(Cc2ccc3c(c2)OCO3)C(=O)Nc2ccc(Cl)c(Cl)c2)CC1` (centres unmarked) [A9], the 50% inhibitory concentration (IC50) came out at 0.0788 µM.

Take `CCCC(C)N1CCC(N(Cc2ccccc2)C(=O)Nc2ccc3ccccc3c2)CC1` (centres unmarked) [A10]: the IC50 was found to be 0.0789 µM.

As for `C=CS(=O)(=O)NCCCN(C(=O)Nc1cccc(C(F)(F)F)c1)C1CCN(C(C)CCC)CC1` (centres unmarked) [drawing 838], the concentration for half-maximal inhibition (IC50) is greater than 24 µM.

As to `Cn1cncc1CN1CCC(N(Cc2ccccc2)C(=O)Nc2cc(F)cc(C(F)(F)F)c2)CC1` [A221], the IC50 is greater than 24.8 µM. The same measure, in the same setting: with `CC1CC(N(C)C(=O)Nc2ccccn2)CCN1Cc1ccccc1` (centres unmarked) [B106] the figure was greater than 71.5 µM; with `COc1cc(C(=O)N2CCC(c3nc4ccccc4s3)CC2)cc(OC)c1Br` [D1], 2.31 µM; with `CCN1CCC(N(Cc2ccc(F)cc2)C(=O)Nc2ccccc2Cl)CC1` [B97], greater than 67.6 µM. For the compound `CCCC(C)N1CCC(N(Cc2ccccc2)C(=O)Nc2cccc3cnccc23)CC1` (centres unmarked) [A244], the IC50 is greater than 53.6 µM. Regarding `CCOc1ccccc1NC(=O)N(C(C)C)C1CCN(C(C)=O)CC1` [B67], the IC50 is greater than 67.6 µM. For `COc1cc(OC)cc(C(=O)N2CCCC(c3nc4ccccc4s3)C2)c1` (centres unmarked) [D30], the IC50 is greater than 67.6 µM. In the case of `O=C(Nc1cccc(C(F)(F)F)c1)NC1CCN(Cc2ccccc2Cl)CC1` [A292, 1-(1-(2-Chlorobenzyl)Piperidin-4-yl)-3-(3-(Trifluoromethyl)Phenyl)Urea], the IC50 was greater than 77.3 µM. For the compound `CCCC(C)N1CCC(N(Cc2ccccc2)C(=O)Nc2ccc(C3CCCCC3)cc2)CC1` (centres unmarked) [A110], the IC50 amounted to 2.21 µM. On to `CCCC(C)N1CCC(N(Cc2ccccc2)C(=O)Nc2cc(C)ccc2F)CC1` (centres unmarked) [A181], for which the half-maximal inhibitory concentration (IC50) amounted to 19.8 µM. With `CCc1ccc(NC(=O)NC2CCN(Cc3ccccc3)CC2)cc1` [B52], the IC50 is greater than 67.6 µM.

For `Cc1cc(C)cc(C(=O)N2CCCC(c3nc4ccccc4s3)C2)c1` (centres unmarked) [D32], the IC50 is greater than 67.6 µM. `CCCC(C)N1CCC(N(Cc2cccnc2)C(=O)Nc2ccc(Cl)c(Cl)c2)CC1` (centres unmarked) [A16]: the IC50 was 0.0905 µM. Regarding `CCOc1cc(C(=O)N2CCCC(c3nc4ccccc4s3)C2)cc(Br)c1OC` (centres unmarked) [D28], the concentration for half-maximal inhibition (IC50) was greater than 67.6 µM. With `CCCCN1CCC(N(Cc2ccccc2)C(=O)Nc2cnn(C)c2)CC1` [A284], the half-inhibitory concentration (IC50) was greater than 72.3 µM. Still for that read-out and setting: for `CCCC(C)N1CCC(N(Cc2ccccc2)C(=O)Nc2ccc(CC)cc2)CC1` (centres unmarked) [A56] the value was 0.315 µM. Turning to `O=C(NC1CCN(Cc2cccc(F)c2)CC1)C(F)(F)F` [A307], the IC50 was greater than 98.1 µM. The same measure, in the same setting: with `CCCC(C)N1CCC(N(Cc2ccccc2)C(=O)Nc2ccc(OC)cc2F)CC1` (centres unmarked) [A290] the figure was greater than 74 µM. Take `Cc1ccc(NC(=O)NC2CCN(Cc3ccccc3)CC2)cc1Cl` [B59, 1-(1-Benzylpiperidin-4-yl)-3-(3-Chloro-4-Methylphenyl)Urea]: the IC50 was greater than 67.6 µM. As to “1-(1-((1H-Pyrazol-3-yl)Methyl)Piperidin-4-yl)-1-Benzyl-3-(3-(Trifluoromethyl)Phenyl)Urea [A180]”, the IC50 was 19.8 µM. Same read-out and setting: for `O=C(NCc1cccc(C(F)(F)F)c1)C1CCN(Cc2ccccc2)CC1` [B41] the value was greater than 63.9 µM; for `COC(=O)[C@@H]1C[C@@H](NC(=O)Nc2ccccc2)CN1Cc1ccccc1C(F)(F)F` [B99], greater than 68 µM; for `Cc1ccc(CN2CCC(N(Cc3ccccc3)C(=O)Nc3cc(F)cc(C(F)(F)F)c3)CC2)o1` [A219], greater than 24.2 µM. `C#CCCCN1CCC(N(Cc2ccccc2NC(=O)C=C)C(=O)Nc2ccc(Cl)c(Cl)c2)CC1` [A304]: the IC50 was greater than 9.74 µM.
